Consider two compounds from patent publication US20260124170A1, “PHARMACEUTICAL COMPOSITION COMPRISING METABOLITE OF ENAVOGLIFLOZIN, AND USE THEREOF” (DAEWOONG PHARMACEUTICAL CO., LTD., priority 2022, published 2026).

Structures are written as SMILES.

For test [1], the target named is T1, SGLT2 (Homo sapiens, UniProt P31639).
T1 construct: expressed in transfected cells
T1 sequence (P31639 1-672): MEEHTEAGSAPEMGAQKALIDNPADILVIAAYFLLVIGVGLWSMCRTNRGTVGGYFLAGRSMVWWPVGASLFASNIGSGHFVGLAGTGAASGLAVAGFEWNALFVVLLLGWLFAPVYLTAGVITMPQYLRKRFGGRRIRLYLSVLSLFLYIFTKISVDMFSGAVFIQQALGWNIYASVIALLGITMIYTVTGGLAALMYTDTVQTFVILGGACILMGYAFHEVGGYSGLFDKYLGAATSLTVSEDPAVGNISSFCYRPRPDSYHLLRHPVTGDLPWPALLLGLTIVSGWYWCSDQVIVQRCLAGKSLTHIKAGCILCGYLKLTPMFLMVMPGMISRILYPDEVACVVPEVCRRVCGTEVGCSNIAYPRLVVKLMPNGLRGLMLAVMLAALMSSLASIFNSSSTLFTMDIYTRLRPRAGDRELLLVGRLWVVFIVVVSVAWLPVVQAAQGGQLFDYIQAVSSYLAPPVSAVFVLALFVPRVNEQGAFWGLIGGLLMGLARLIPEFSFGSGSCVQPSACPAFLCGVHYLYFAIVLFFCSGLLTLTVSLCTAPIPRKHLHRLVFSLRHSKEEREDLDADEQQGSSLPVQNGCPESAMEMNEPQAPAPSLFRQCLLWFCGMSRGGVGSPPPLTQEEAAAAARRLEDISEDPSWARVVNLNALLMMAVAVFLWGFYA
The experiment in a line: Inhibition of [14C]AMG uptake in SGLT2-overexpressing CHO cells. In kind it is cell-based. Conditions: CHO-SGLT2 cells, 10 μM [14C]AMG, 2 h, 37° C. As for the experimental part:
The evaluation was performed in the same manner as the evaluation of SGLT1 inhibition, except that an SGLT2-overexpressing cell line (CHO-SGLT2 stable cells) was used, and the inhibitory evaluation substances described below were used.

The target in test [2] is T2, SGLT1 (Homo sapiens, UniProt P13866).
T2 construct: expressed in transfected cells
T2 sequence (P13866 1-664): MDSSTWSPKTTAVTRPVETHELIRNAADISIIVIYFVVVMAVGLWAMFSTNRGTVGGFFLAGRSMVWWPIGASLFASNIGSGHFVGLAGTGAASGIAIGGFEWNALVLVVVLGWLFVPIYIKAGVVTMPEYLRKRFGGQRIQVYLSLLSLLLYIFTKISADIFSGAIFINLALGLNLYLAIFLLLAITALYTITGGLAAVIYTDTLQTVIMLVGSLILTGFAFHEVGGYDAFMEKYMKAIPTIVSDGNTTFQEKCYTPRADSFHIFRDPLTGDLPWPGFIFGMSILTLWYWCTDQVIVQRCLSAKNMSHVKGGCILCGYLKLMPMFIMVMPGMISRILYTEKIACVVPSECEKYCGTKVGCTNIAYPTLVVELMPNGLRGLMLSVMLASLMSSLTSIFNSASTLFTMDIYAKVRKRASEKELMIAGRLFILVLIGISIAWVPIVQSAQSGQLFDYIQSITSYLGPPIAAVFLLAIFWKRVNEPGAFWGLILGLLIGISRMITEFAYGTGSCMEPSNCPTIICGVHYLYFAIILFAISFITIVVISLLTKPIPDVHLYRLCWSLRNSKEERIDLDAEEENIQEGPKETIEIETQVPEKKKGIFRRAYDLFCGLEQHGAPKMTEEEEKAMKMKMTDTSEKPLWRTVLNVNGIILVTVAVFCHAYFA
The experiment in a line: Change in SGLT1 inhibition according to drug pretreatment time (CHO-SGLT1). The format is cell-based. As to conditions: pretreatment 0, 1, 2 h; one-way ANOVA. The source says:
(§1) All data values are expressed as the mean±SD of […].

Test [3] addresses T2, SGLT1. The experiment in a line: SGLT1 inhibition with varied substrate AMG concentration (Dixon / L-B plot). The format is cell-based. Conditions: CHO-SGLT1, varied AMG concentration.
Method: (§3) From these, the inhibition mechanism was confirmed, and the inhibition constant was calculated.
For test [4], the target named is T1, SGLT2. Put plainly: Change in SGLT2 inhibition according to drug pretreatment time (CHO-SGLT2). The format is cell-based. Conditions: for IC50: CHO-SGLT2.
From the text: as §1

The target in test [5] is T1, SGLT2. The experiment in a line: SGLT2 inhibition with varied substrate AMG concentration (Dixon / L-B plot). The format is cell-based.
Method: as §3
The subject of test [6] is STZ-induced type 1 diabetic rats. The experiment in a line: Oral glucose tolerance test in type 1 diabetic rat model. The format is in vivo. As to conditions: STZ rats, 1 mg/kg, glucose 2 g/kg oral. Here is the method: (§2) STZ was administered to Sprague Dawley (SD) male 5-week-old rats on day 0 (G2 to G7, excluding G1), and non-fasting blood glucose levels were measured on day 3 to determine whether type 1 diabetes was induced. On day 7, the experimental substances were administered to each group, and blood and urine samples were collected at 6 h, 24 h, 48 h, and 72 h to measure non-fasting blood glucose levels. On day 14 of the experiment, the experimental animals were fasted for 16 h, and on day 15, 2 g/kg of glucose solution was orally administered after the experimental substances were administered. Thereafter, blood glucose levels were measured at 15, 30, 60, 90, and 120 minutes after glucose administration. After blood collection, the serum was separated, and the IL-6 inflammatory response was evaluated using an interleukin-6 (IL-6) enzyme-linked immunosorbent assay (ELISA) kit.

In test [7] the test system is interleukin-6 (IL-6). Put plainly: Serum IL-6 ELISA in type 1 diabetic rat model. The format is in vivo. As to conditions: STZ rats, 6, 24, 48, 72 hours after administration. As for the experimental part: as §2

In the case of `OC[C@H]1O[C@@H](c2ccc(Cl)c(Cc3ccc(O[C@H]4CCOC4)cc3)c2)[C@H](O)[C@@H](O)[C@@H]1O` [Empagliflozin], the IC50 was 6.65 ± 2.92 nM in test [1]; 6.67 ± 1.29 nM in test [4] (IC50 according to pretreatment time (nM), SGLT2, 1 h, 1 h pretreatment in sodium-free buffer); 7.35 ± 0.82 nM in test [4] (IC50 according to pretreatment time (nM), SGLT2, 2 h, 2 h pretreatment in sodium-free buffer); 7.2 ± 2.33 nM in test [4] (no pretreatment, read-out: IC50 according to pretreatment time (nM), SGLT2, 0 h). Besides, the “Change in SGLT1 inhibition as exposure time increased” value in test [2] was “did not show any significant change or increase in inhibition”. In addition, the “Inhibition mechanism, SGLT1” value in test [3] was “Competitive inhibition”. Moreover, the “Change in SGLT2 inhibition as exposure time increased” value in test [4] (pretreatment 0, 1, 2 h, one-way ANOVA) is given as “did not increase or significantly change”. In test [5] (CHO-SGLT2, varied AMG concentration), the “Inhibition mechanism, SGLT2” value is given as “Competitive inhibition”. This compound registered an inhibitory constant (Ki) in test [5] (from slope of L-B plot, CHO-SGLT2) of 5.15 nM.

As to `CCOc1ccc(Cc2cc([C@@H]3O[C@H](SC)[C@@H](O)[C@H](O)[C@H]3O)ccc2Cl)cc1` [Sotagliflozin], the “Blood glucose level in OGTT” value in test [6] is recorded as “lowering of the blood glucose level was observed”. In addition, the “Change in IL-6 level” value in test [7] is recorded as “slight decrease”.
